Laboratory results as given in US20110306663A1 (Baylor Research Institute, priority 2010, published 2011).
Several values for one entry are separate records, joined by “and”; a condition that tells them apart may be missing. Equal entries are not always repeated.

Tests used:
[1] = system: patients with APBD and GBE1 deficiency; test: Urinary organic acids and blood acylcarnitine profile analyses; type: in vivo, human
Experimental: (§1) In the event of an organic acid abnormality such as an excessive urinary excretion of propionic and/or methylmalonic acid occur, biotin and/or vitamin B12 respectively were added to the regimen and normalization of the organic acid and acylcarnitine profile was verified. Should that not be sufficient the dose was reduced until normalization occurs. If still abnormal, patient was be excluded from the study.
Safety was also monitored throughout the study by urinary organic acids and blood acylcarnitine profile analyses.

[2] = system: patients with APBD and GBE1 deficiency; test: Adverse event assessment, open-label triheptanoin study; type: in vivo, human; settings: 5 patients; for Adverse events (AE): mean 8.2 months of treatment
Experimental: (§2) Ages ranged from 51-66 years and all were Ashkenazi Jewish. Three patients were able to walk independently, one walked with the help of a walker and a 5th patient was wheelchair bound.
as §1
Two adverse events not related to the triheptanoin were a broken ankle in one patient and wound treatment in another. […] Safety was also monitored throughout the study by urinary organic acids and blood acylcarnitine profile analyses. Changes in metabolic tests related the ingestion of triheptanoin were identified.

[3] = system: patients with APBD and GBE1 deficiency; test: 6 minutes walk test, open-label triheptanoin study; type: in vivo, human
Experimental: as §2
(§3) Baseline evaluation based on the criteria described in Table I, herein below was performed every 3 months.
(§4) The outcome measures included: (i) the 6 minutes walk test and (ii) motion capture gait analysis and (iii) SF-36 Health Survey Questionnaire. […] Maximal improvement seemed to occur within the first 6 months of treatment (FIG. 2). […] Physical Function score increased in 4/5 patients on the SF-36 health survey questionnaire.

[4] = system: patient with pyruvate carboxylase deficiency; settings: one patient; cited from earlier work
[5] = system: patient with adult-onset acid maltase deficiency (Pompe disease); settings: one patient; cited from earlier work
[6] = system: patients with APBD and GBE1 deficiency; test: Motion capture gait analysis, open-label triheptanoin study; type: in vivo, human
Experimental: as §2, §3, §4

[7] = system: patients with APBD and GBE1 deficiency; test: SF-36 Health Survey Questionnaire, open-label triheptanoin study; type: in vivo, human
Experimental: as §2, §3, §4

[8] = system: patients with long chain fatty acid oxidation defects; settings: 30% to 35% of total daily caloric intake; cited from earlier work
[9] = 5 patients, within 6 months of treatment

**Q.** What does the source list for `CCCCCCC(=O)OCC(COC(=O)CCCCCC)OC(=O)CCCCCC` [triheptanoin, glyceryl triheptanoate]?
**A.** Catabolism of triheptanoin ([1]; conclusion from urine and plasma findings): catabolized completely without accumulation of secondary metabolites; Mitochondrial overload from triheptanoin-derived metabolites ([1]; urinary organic acids): no evidence of mitochondrial overload; Urinary excretion of derivatives of heptanoate oxidation (pimelate, 3-hydroxypentanoate, 3-ketopentanoate, 3-hydroxypropionate, methylcitrate) ([1]; urine): detected; AE remotely linked to triheptanoin [2]: rectal pain reported by one patient; Serious AE [2]: no serious AE related to triheptanoin oil; Adverse events (AE) [2]: No adverse events (AE) were reported; Adverse events (AE) ([2]; listed as triheptanoin oil): No significant adverse events occurred; Six minute walk test distance on treatment ([3]; 5 patients, mean ± SD after treatment (from 1246±642), p=0.06): 1376±692 feet; Six minute walk test mean increase ([3]; 5 patients, triheptanoin oil 1-2 g/fg/24 hours in 4 divided doses, 1246±642 at start, p=0.06): 130 feet; Distance walked during 6 minutes (6 minutes walk test) [3, 9]: significant improvement; Time of maximal improvement in 6-minute walk test ([3]; FIG. 2): ≤ 6 months; 6-minute walk test mean improvement ([3]; mean follow up of 8.5 months, n=5, p=0.06): 10%; 6-minute walk test improvement, one patient ([3]; one patient, 25 months time point): 126 feet and 9.5%; Motor performance and quality of life ([3]; open-label study, 5 patients): evidence of improved motor performance as well as quality of life; Glutamine and GABA in the CSF [4]: normalization; Clinical response [5]: markedly improved; Gait analysis: cadence, support time, stride length, step length and walking speed ([6]; 3 patients who were able to walk unaided): improvement; Gait analysis [6, 9]: stability or slight improvement; Patients with increased Physical Function score on the SF-36 ([7]; 5 patients): 4/5; SF-36 Health Survey Questionnaire scores ([7]; FIG. 3): tended to improve in parallel with motor score; Clinical outcome of diet treatment [8]: decreased episodes of rhabdomyolysis, improvement in pain and cardiac function; Propionyl overload [8]: No propionyl overload occurred
